Details: rat, in vivo, po, 10 mg
Procedure: The compound was dissolved in 5 ml of distilled water and then made up to 10 ml with distilled water to make a solution of 5 mg/ml concentration. For group 1 (G1), a dose volume of 2 ml formulation containing 10 mg of reference standard was administered to each rat irrespective of the body weight. Test formulation is as provided in example 5B. Test formulation was used as such as the formulation is in gel form for dermal application. 3 gm of the gel formulation containing 10 mg of test cynacobalamine is a test formulation.
One day prior to the dermal application of test item formulation for group 2 (G2) rats, the hair from the back of each rat was removed using hair removal cream and washed with saline. On the day of experiment, the shaved area was wiped with 70% isopropyl alcohol and dried. […] Immediately after application, the area was covered with non-absorbable cotton and was secured with adhesive tape.
Blood was collected through retro orbital plexus using capillary at specified time points i.e. 0.5 hr, 1.0 hr, 3.0 hr, 6.0 hr & 24.0 hrs post-dose. To collect the serum sample, the tubes were kept for 30 min. at room temperature and allowed for coagulation and then separated by centrifugation the tubes at 3000 rpm for 10 min at 4° C.

Cynacobalamine [Oral]
AUC (0-∞): 2775.15 ng·h/mL | Cmax: 205.67 ng/mL | Tmax: 1 h
